The text below walks through data of patent US12245591B2, “Templated antimicrobial microgels and methods of making and using the same” (THE BOARD OF TRUSTEES OF THE UNIVERSITY OF ARKANSAS, priority 2019, dated 2025).

In brackets after ≈: the same amount, converted by molar mass. Where two headings read alike, the source gives them in different places.

Data set [1] has as its system E. coli (BL21 DE3). Kind of data set: Minimal inhibitory concentration (MIC), broth microdilution, E. coli. It counts as cell-based. The conditions noted are these: for MIC: Escherichia coli, read-out: MIC E. coli. The protocol: (§1) The minimal inhibitory concentration (MIC) and minimal bactericidal concentration (MBC) by broth microdilution assays in 96-well plates to determine antimicrobial activity of selected agents against Gram-positive and Gram-negative bacteria
(§2) Antimicrobial materials: In a typical experiment, the synthesized polymers were prepared for antimicrobial assays as described for the kinetic assays in Example 4(A), except as indicated in Tables 7-10 and 12.
(§3) Mueller Hinton broth (MHB): A sterile broth is prepared with 4.50 g Mueller Hinton base (Hardy Diagnostics) in 200 mL deionized water. The broth is cooled to room temperature after being autoclaved and stored at 4° C. until use.
(§4) Propagation of bacterial cells: Typically, 500 μL aliquots of S. aureus (ATCC® 25923™) or E. coli (BL21 DE3) cells are used to inoculate 5 mL of Mueller Hinton broth. The inoculum is shaken at 37° C. and 240 rpm for 6 h. Then, 500 μL aliquots are transferred to individual vessels, flash-frozen in liquid nitrogen, and stored as pre-starter cultures at −20° C. until use.
(§5) Growth of bacterial cells: A 500 μL pre-starter culture is used to inoculate 5 mL of Mueller Hinton broth at 37° C. After 5 h of shaking at 240 rpm, a 500 μL of the inoculum is diluted to 20 mL with sterile MHB, followed by three successive 1:10 dilutions of 1000 μL of the resulting solutions into 10 mL MHB. Subsequently, 50 μL of the most dilute cell suspension is spread on a Mueller-Hinton agar plate, and incubated at 37° C. After 24 h, selected colonies are re-suspended in 4 mL of Mueller-Hinton broth and diluted until their OD625 value matched that of a 0.5 McFarland standard at 37° C. to account for a cell concentration of 1×10^8 CFU/mL. Typically, a 50 μL aliquot of the cell suspension is diluted into 10 mL of Mueller-Hinton broth to obtain a stock solution of S. aureus cells at a concentration of 5×10^5 CFU/mL. Typically, two separate inoculums are prepared immediately prior to use.
(§6) Preparation of broth microdilution assays and data recording: Following standard procedures for conducting broth microdilution assays, 100 μL aliquots of Mueller-Hinton broth are added to each well. Subsequently, a 100 μL aliquot of the sterile antimicrobial agent solution is added in the first column of the plate and then diluted in a serial manner by subsequent transfers of 100 μL aliquots over the first 10 columns. […] Typically, the absorbance in each well is then monitored at 595 nm and 37° C. over a 16 h period in 2 h intervals.
(§7) Data analysis: The obtained absorbance data are plotted against time to determine the steady state point of cell growth. The change of absorbance at this time for wells with and without antimicrobial agent is then plotted against the concentration of the antimicrobial agent. […]

Data set [2] relates to S. aureus (ATCC 25923). Kind of data set: Minimal inhibitory concentration (MIC), broth microdilution, S. aureus. Format: cell-based. The note with it: for MIC: Staphylococcus aureus. The protocol: as §1, §2, §3, §4, §5, §6, §7
In general terms: Broth dilution looks for growth in wells or tubes with falling amounts of substance.

Data set [3] in a line: physchem.
From the text: As the dissociation constant of CEA in water is to the best of our knowledge not reported, we used the structural similarity between CEA and propionic acid to predict the pKa value of CEA as 4.9.42 We then projected the pKa value of a linear CEA-polymer as 5.6, and estimated the pKa value of a crosslinked microgel with 20 mol % of CEA as 10.1 following the method by Fisher and Kunin as described.43 In short, the apparent pKa values of crosslinked microgels were estimated from the pKa(m=1) value of a linear polymer of the monomeric acid as eq 2 pKa,app=pKa(m=1)(2−m) (eq 2) where m is the mol fraction of the monomeric acid. The dissociation constant of the linear polymer is estimated graphically by extrapolation.
Data set [4] can be described thus: Coordination to binuclear complex Cu2bpdpo, isothermal titration calorimetry. It counts as binding. The note with it: coordination to the metal complex; pH 10.50, 10° C. Background: ITC needs no label: the signal is the heat of the interaction.
From the text: The coordination of galactonoamidine 1 to binuclear complexes was already evaluated in part and included Cu2bpdpo (5), a nonpolymerizable analogue of 3 (FIG. 15).
The format of data set [5] is biochemical. The note with it: for Km / kcat: substrate β-9. The protocol: 2.8.4. Catalytic Glycoside Hydrolysis. […]
Substrate Stock Solution. […] As the glycoside precipitates in this concentration from aqueous solutions at ambient temperature, the resulting solution was kept above 50° C. until use.
Catalyst Stock Solutions. The microgel dispersions were used as described above. […]
Kinetic Assay. In a typical experiment, 20 μL of an activated microgel dispersion were added to aliquots of the glycoside stock solution (0-100 μL) and corresponding amounts of buffer solution, keeping the nominal volume of the resulting solutions at 200 μL. […] The product formation was read in 20 min intervals after orbital shaking of the solutions over 5 s each. All experiments were performed in duplicate or triplicate.
Data Analysis. The collected fluorescence intensity was plotted over time, and a linear fit applied to the data collected between 140 and 480 min. The calculated rates of the reaction were then corrected by the corresponding apparent extinction coefficient and catalyst amount, averaged from two independent experiments, and plotted over the molar substrate concentration. Nonlinear regression of the resulting hyperbolic data yielded the rate constant kcat and the apparent substrate affinity KM. The rate constant of the uncatalyzed reaction knon was determined by applying a linear fit to the corrected rates of the collected data obtained in absence of catalyst. Data obtained in the presence of metal-ion free control polymer ^LPgal and from control polymer ^Cu2LPEG were treated likewise to estimate their catalytic efficiency.
The turbidity of the aqueous microgel dispersions under consideration here increases visibly to the naked eye with the crosslinking content from 5 to 80 mol % EGDMA. As a consequence, the apparent extinction coefficient (εapp) was determined for each microgel under the respective assay conditions prior to analysis of related spectroscopic data. […] (FIG. 9). [Chen, R. F Anal. Lett. 1968, 1(7), 423-428] […] [Striegler 2010] and used here to establish catalytic activity of the newly synthesized crosslinked microgels. The assay was developed in a 96-well plate format to allow fast catalyst screening under various reaction conditions, including lower pH values in future efforts.
Likewise, a linear correlation between the concentration of the low molecular weight complex Cu2bpdpo (2) and the product formation of the glycoside hydrolysis was observed when the catalyst was used in concentrations up to 12 μM under assay conditions. With a fast screening assay on hand, the hydrolysis of glycoside 6 was evaluated with two different microgel catalysts at 60% crosslinking content: a polymer […] prepared in the presence of galactose and its metal-free, nonactivated analogue ^LPgal. Control experiments were conducted using a microgel ^Cu2LPEG that has the same crosslinking content as those polymers above, but is prepared in the presence of ethylene glycol instead of galactose. Additionally, hydrolysis of 6 was followed in the presence of low molecular weight complex Cu2bpdpo (2) and in the absence of catalyst in the buffer solution itself. The resulting hyperbolic data for the glycoside hydrolyses were analyzed by applying the Michaelis-Menten model to obtain the rate of the reaction (kcat), the substrate affinity (KM), and the rate of the uncatalyzed reaction (knon) in aqueous buffer solution. The catalytic proficiency (kcat/(KM×knon), catalytic efficiency (kcat/KM), and acceleration of the reaction over the uncatalyzed background reaction (kcat/knon) were then calculated therefrom as described (Table 1, FIG. 11).
Activated microgel catalysts were prepared as described. [Sharma Biomacromolecules 2018] Typical stock solutions were as follows: Cu2bpdpo […] 2 mM, β-galactosidase as described [Sharma ACS Catal. 2018], 4-methylumbelliferyl α-D-galactopyranoside (α-9) 8-9 mM, and 4-methylumbelliferyl […] 3-4 mM. […]

Data set [6] in a line: Stability of galactonoamidine against hydrolysis under buffer and temperature conditions (HPLC, NMR). It counts as physicochemical. The protocol:
The instrumentation, reagents, and materials for this study were recently described. [Sharma, B. et al. Biomacromolecules 2018, 19, 1164-1174; Sharma, B. et al. […]. 2018, 8, 7710-7718] The computational analysis was performed with PQSmol as reported. [Sharma Biomacromolecules 2018; […]. et al. Dalton Trans. 2016, 45, 15203-15210; Becke, A. D. J. Chem. Phys. 1993, 98, 5648-5652; Lee, C. et al. Phys. Rev. B: Condens. Matter Mater. Phys. 1988, 37, 785-789; PQSmol, Version 4.1; Parallel Quantum Solutions: […]. et al. J. Chem. […] [[…]. et al. Bioorg. Med. Chem. 2016, 24, 3371-3377] Glyconoamidines are prone to nucleophilic attack at the anomeric C atom and subsequent hydrolysis in alkaline solution. Various glyconoamidines have been previously synthesized. [Bleriot, Y. et al. Bioorg. Med. Chem. Lett. 1995, 5, 2655-60; Bleriot, Y. et al. Tetrahedron Lett. 1994, 35, 1867-70; Heck, M.-P. et al. J. Am. Chem. Soc. 2004, 126, 1971-1979; […]. Res. 1996, 29, 340-347] We evaluated the hydrolysis of galactonoamidine 1 under various buffer and temperature conditions to ensure its stability under polymerization conditions. […] The stability of 1 was also observed at 0 and 10° C. over a 3 h time period in 5 mM CAPS buffer solution at pH 10.50. Buffer solutions with similar molarity at lower pH values behave likewise (FIG. 13).

Data set [7] concerns B21 DE3 E. coli cells. Nature of the data set: Growth of E. coli cells in petridish assays with Müller-Hinton/agar media. Format: cell-based. The conditions noted are these: 37° C., 12 h. How it is done:
Sterile Müller-Hinton/Agar (MH) media. 4.54 g Müller-Hinton media and 5.07 g agar were dissolved in 200 mL deionized water. The media were autoclaved and stored at 4° C. until use.
E. coli cell culture. A 100 μL aliquot of B21 DE3 E. coli cells, purchased from New England Biolabs, were added to 1 mL of sterile Luria-Bertani broth; the culture was incubated for 2 hours at 37° C. Then, a 100 μL aliquot of this culture was diluted by serial dilution 200,000-fold with sterile LB (Miller's) media yielding 10 mL of a stock solution of the cell culture.
Stock solution of low molecular weight complex Cu2bpdpo (catalyst 1). 5.28 mg of Cu2bpdpo were dissolved in 5 mL of 50 mM HEPES buffer at pH 7.00; a 1000 μl aliquot of the resulting solution was further diluted into 10 mL yielding a 160.3 μM stock solution of Cu2bpdpo.
Stock solution of Hen Egg-white lysozyme (catalyst 2). 11.53 mg of lyophilized lysozyme purchased from AMRESCO were dissolved in 5 mL of 50 mM HEPES buffer at pH 7.00 and used as a 161.1 μM stock solution.
Stock solutions of microgels (catalysts 3-5). All microgel stock solutions were treated as described above, but only diluted 1:5 during activation and then sterilized prior to use for these experiments. The stock solution for ^Cu2LPgal (40%) is 112.3 μM, for ^Cu2LPgal (60%) 145.6 μM and for ^Cu2LP1 (60%) 153.6 μM.
Plate preparation. […]

[8] abbreviates: 5 mM aqueous HEPES buffer, pH 7.00, 37° C.
[9] abbreviates: 50 mM aqueous CAPS buffer, pH 10.50, 37° C.
[10] abbreviates: broth microdilution, 37° C., 2.5×10^5 CFU/mL.
Setting [11] is: ATCC25923, broth microdilution, 37° C., 2.5×10^5 CFU/mL, read-out: MIC S. aureus.

Consider `CN[C@H](CC(C)C)C(=O)N[C@H]1C(=O)N[C@@H](CC(N)=O)C(=O)N[C@H]2C(=O)N[C@H]3C(=O)N[C@H](C(=O)N[C@H](C(=O)O)c4cc(O)cc(O)c4-c4cc3ccc4O)[C@H](O)c3ccc(c(Cl)c3)Oc3cc2cc(c3O[C@@H]2O[C@H](CO)[C@@H](O)[C@H](O)[C@H]2O[C@H]2C[C@](C)(N)[C@H](O)[C@H](C)O2)Oc2ccc(cc2Cl)[C@H]1O` [Vancomycin], for which the minimum inhibitory concentration (MIC) (in general, the lowest concentration that inhibits growth of the organism) in data set [1] came out at 12.5 ± 0.2 µg/mL (≈ 8.63 µM); in data set [2] (ATCC25923, read-out: MIC S. aureus), 2.35 ± 0.14 µg/mL (≈ 1.62 µM).
Take `C=CC(=O)OCCC(=O)O` [CEA monomer, carboxyethyl acrylate]: in data set [3], the pKa (in general, the pH at which an ionisable group is half protonated) was determined as 4.9.
Consider `O=C[C@H](O)[C@@H](O)[C@@H](O)[C@H](O)CO` [galactose], for which the “pKa, gal” value in data set [4] was 2.70.
As for “β-galactosidase: β-galactosidase (bovine liver)”, the “stabilization of enzyme-catalyzed hydrolysis relative to microgel ^Cu2LP1” value in data set [5] (pH 7) is recorded as 3.5×106 fold. In addition, in data set [5] (substrate 6 / β-9, pH 10.50, CAPS, 37° C.), the “catalytic proficiency relative to low molecular weight complex Cu2bpdpo” value was “about 3250 fold”. Besides, in data set [5] (setting [8]), the Michaelis-Menten constant (Km) (commonly the substrate concentration at which the rate is half of its maximum) is 110 ± 220 µM and the turnover number (kcat) (as a rule, the maximal rate divided by the concentration of active sites) is 4.6 ± 0.1 min⁻¹. In data set [5] (setting [9]), the Michaelis constant (Km) turned out to be 540 ± 60 µM and the kcat is 2.95 ± 0.09 10^−3 min^−1. In addition, the “catalytic proficiency higher than that of amidine-templated microgel ^Cu2LP1” value in data set [5] (β-9, alkaline solution, pH 10.50) was “about 57 fold”.
On to `O=C(N[C@H](CO)[C@H](O)c1ccc([N+](=O)[O-])cc1)C(Cl)Cl` [Chloramphenicol], for which the minimal inhibitory concentration (MIC) in data set [1] (setting [10]) came to 1.29 ± 0.04 µg/mL (≈ 3.99 µM); in data set [2] (setting [11]), 6.11 ± 0.02 µg/mL (≈ 18.9 µM).
Regarding `Cc1ccc(CNC2=NC(CO)C(O)C(O)C2O)cc1` (stereo not drawn) [galactonoamidine 1], the stability against hydrolysis entry is given as “instant hydrolysis” in data set [6] (50 mM CAPS buffer, pH 10.50, 72° C.); “slowed the hydrolysis” in data set [6] (buffer strength lowered to 5 mM, pH 10.50, 72° C.); “stable” in data set [6] (pure deuterium oxide, 72° C., 3 h).
As to `CCCCCCCCCCCCOS(=O)(=O)[O-].[Na+]` [SDS, sodium dodecyl sulfate], the minimal inhibitory concentration (MIC) in data set [1] (setting [10]) is 325 ± 11 µg/mL; in data set [2] (setting [11]), 122 ± 1 µg/mL.
On to “lysozyme: Hen Egg-white lysozyme purchased from AMRESCO”, for which the “inhibition of cell growth of E. coli on Müller-Hinton agar plates” value in data set [7] is “inhibition of cell growth to a much smaller extend”.
As to Benzalkonium chloride, in data set [1] (setting [10]), the “MIC E. coli” value amounted to 117 ± 1 µg/mL. Further, the “MIC S. aureus” value in data set [2] (setting [10]) is 4.32 ± 0.01 µg/mL.
